Data on three compounds can be found in US20070134731A1, “PROTEOMICS BASED METHOD FOR TOXICOLOGY TESTING” (priority 2002, published 2007).

Series [1] has as its system rats. Description: toxicant exposure of rats; modified proteins isolated from serum (immunoaffinity, 2D gel electrophoresis, LC/MS). Type of series: in vivo. To be noted: for modified proteins found in serum of treated animals, not found in the control group: rat serum, CCl4 0.1 and 1.0 mL/kg or ozone 0.8 and 2.0 ppm, specimens at 0-24 hours, anti-nitrotyrosine, chlorotyrosine, methionine sulfoxide resins, LC/MS. Here is the method: Experimental groups consisted of three experimental and two control animals at each dose and specimens were collected at zero, one, two, four, eight, sixteen and twenty-four hours following ozone administration. In another experimental series, CCl4 was administered at a level of 0.1 and 1.0 mL/kg to rats to induce liver damage, and specimens were collected at time points as described above. […] Therefore, these high abundance proteins are preferably eliminated from serum samples prior to further processing.
In this experimental series, the specimens were purified by passing them over affinity resins containing antibodies against whole rat serum proteins and collecting the eluate. This purification methodology was effective in removing a significant amount of the high abundant serum proteins, which typically have a molecular weight in the range of 49-80 kiloDalton. […] Therefore, it was determined that concentration of the sample could be carried out very effectively by a process of molecular weight sieving which retained low molecular weight proteins (typically 50 kiloDalton and below) and excluded high molecular weight proteins. Such sieving was effectively accomplished utilizing a Superdex 75 column with a sample loading volume of 10% of the bed volume. Processes of this type have the advantage of being cheaper and faster than affirity resin based processes.
Once the concentration of high abundance serum proteins was decreased, the tissue proteins were purified from serum by immunoaffinity resins using antibodies to nitrotyrosine, chlorothyosine and methionine sulfoxide. […] Samples of interest were excised from the gel and those with sufficient concentration were analyzed by LC/MS.

The subject of series [2] is rats. To be noted: in rats; cited from earlier work.

SMILES strings stand for the structures. “Also recorded” adds a separate entry of the source.

For the compound `ClC(Cl)(Cl)Cl` [CCl4, carbon tetrachloride], the “modified proteins found in serum of treated animals, not found in the control group” value in series [1] is “three out of the seven peptides from the CCl4 group were associated with mitochondria; also recorded: peroxiredoxin”. Besides, the organ toxicity entry in series [2] was “known hepatotoxicant”.
As for `O=C1CCC(=O)N1c1cc(Cl)cc(Cl)c1` [NDPS, N-(3,5-dichlorophenyl) succinimide], the organ toxicity entry in series [2] is “toxic to the kidney”.
Consider `O=[O+][O-]` [ozone], for which the “modified proteins found in serum of treated animals, not found in the control group” value in series [1] was “four proteins of interest were found”. The organ damage result in series [1] (rats breathing ozone at 0.8 and 2.0 ppm) is “Lung damage was produced”. The organ toxicity result in series [2] is on record as “toxic to the lungs”.
